In US11993660B2, “Chimeric polypeptides and methods of altering the membrane localization of the same” (Cell Design Labs, Inc., priority 2017, dated 2024):

System: Primary human T cells expressing FMC63-CAR with ERa LBD fusion
Assay: Brefeldin A block of ligand-induced surface trafficking
Type: cell-based
Settings: 1 uM pre-treatment; then 500 ng/mL 4-OHT two hours
Protocol: Primary human T cells expressing FMC63-CAR with ERa LBD fusion were left untreated or were treated with 500 ng/mL 4-OHT ligand for two hours to induce surface expression of the CAR. Prior to 4-OHT treatment, half the cells were pre-treated with 1 uM Brefeldin A (FIG. 12, bottom two panels) to inhibit protein export from the Golgi.

## C[C@H]1CCC/C=C/[C@@H]2C[C@H](O)C[C@H]2[C@H](O)/C=C/C(=O)O1 [Brefeldin A]
  effect on 4-OHT-induced surface protein expression: prevented 4-OHT-induced increase in surface protein expression
